Structures can show the parent of a compound that is named as a salt.
Tests used:
[1] = tested on: rhodopsin GPCR; assay: Translocation of ED-tagged rhodopsin GPCR by complementation (model of retinitis); type: cell-based
Text: (§1) In a model of retinitis, the rhodopsin GPCR was tagged with an ED, and its translocation was studied in response to addition of 9-cis retinol. […] Also, AVPR2 (Arginine vasopressin receptor 2), a GPCR for which antagonists are used therapeutically, was studied with SR49059, a small molecule vasopressin V1a receptor antagonist. […] More than 200 mutations in the AVPR2 gene have been identified in people with nephrogenic diabetes insipidus. Most of these mutations cause the vasopressin V2 receptor protein to be misfolded into an incorrect 3-dimensional shape. Thus the present assay finds particular applicability in identifying compounds that bind to the AVPR2 gene product in the case of a misfolding mutation which occurs in humans.

[2] = tested on: ADRB2 W158A; assay: Arrestin activity assay; type: cell-based; settings: compound 10 μM; signal of test well divided by signal of buffer-only control wells
Procedure: (§2) The cells were lysed and the complemented activity was measured using a chemiluminescent b-galactosidase substrate. The values of each well containing a test compound was divided by the signal obtained from the control wells that received only buffer.

[3] = target: ADRB2 (Homo sapiens, UniProt P07550); assay: cAMP activity assay (Gs ADRB2); type: cell-based; settings: compound 10 μM; signal of test well divided by signal of buffer-only control wells
Procedure: as §2

[4] = target: T1, ADRB2 W158A mutant (Homo sapiens, UniProt P07550, W158A); assay: Trafficking assay: β-galactosidase enzyme fragment complementation, ADRB2 W158A-ProLink with endosome-localized EA; type: cell-based; settings: compound 10 μM; signal of test well divided by signal of buffer-only control wells
T1 construct: expressed in transfected cells
Text: The ADRB2 is a G-protein coupled receptor containing seven transmembrane regions. It was been shown that mutation of W158 to alanine can cause retention of the protein in the endoplasmic reticulum. Contacting the receptor with small molecules that bind to ADRB2 results in enhanced movement of the protein to the plasma membrane and endosomal compartments.
The first fusion protein used comprises the target peptide (ADRB2W158A-PK) and the first fragment of complementation assay. This construct includes the W158 to alanine mutation. The second fusion protein used comprises endosome localized protein and the second fragment of complementation assay.
as §2

[5] = target: KCNH2 (hERG) mutant, Kv11.1 potassium ion channel (Homo sapiens, UniProt Q12809, form not given); assay: in vitro
[6] = target: KCNH2 (hERG) mutant, Kv11.1 potassium ion channel (Homo sapiens, UniProt Q12809); settings: KCNH2 mutant-PK cells, overnight, FIG. 5 curve fit
Procedure: A single-point mutation is introduced in KCNH2. The second fusion protein used comprises plasma membrane localized protein and the second fragment of complementation assay. The second fragment of complementation assay was localized to the plasma membrane by fusing it to PH domain of phospholipase C gamma.
In this experiment, cells expressing the KCNH2 mutant fused to the first fragment of complementation assay (ProLink™ peptide) and the plasma membrane localized EA were treated with a variety of compounds that bind to the ion channel.
Binding of ligand leads to stabilization (“rescue”) and transport of the protein to the membrane.—PLC(PH)-EA anchors to the membrane. […] The assay is run overnight.

[7] = target: T2, AVPR2 (Arginine vasopressin receptor 2) (Homo sapiens, UniProt P30518); assay: Trafficking of AVPR2 target peptide by complementation; type: cell-based
T2 construct: expressed in transfected cells
T2 sequence (P30518 whole entry): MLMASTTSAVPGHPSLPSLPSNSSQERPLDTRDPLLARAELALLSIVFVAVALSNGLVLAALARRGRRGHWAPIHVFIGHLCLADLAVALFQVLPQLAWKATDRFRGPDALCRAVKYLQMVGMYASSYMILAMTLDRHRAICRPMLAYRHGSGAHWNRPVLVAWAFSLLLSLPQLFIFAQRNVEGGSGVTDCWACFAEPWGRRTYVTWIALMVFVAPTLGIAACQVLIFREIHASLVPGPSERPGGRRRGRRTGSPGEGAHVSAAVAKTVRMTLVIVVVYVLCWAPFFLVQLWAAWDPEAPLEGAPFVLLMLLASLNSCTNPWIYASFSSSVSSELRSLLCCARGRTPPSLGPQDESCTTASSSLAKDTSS
Text: as §1

## CC1=C(/C=C/C(C)=C\C=C\C(C)=C\CO)C(C)(C)CCC1 [9-cis retinol]
[1]
  translocation of ED-tagged rhodopsin in response to compound (result in words): dose-response curve showed sensitive results

## CC(C)(C)NC[C@H](O)COc1nsnc1N1CCOCC1.O=C(O)/C=C\C(=O)O [(S)-Timolol maleate]
[2]
  Arrestin W158A S/B: 0.9

## CC(C)(C)NCC(O)COc1cccc2[nH]c(C#N)cc12.CC(C)(C)NCC(O)COc1cccc2[nH]c(C#N)cc12.O=C(O)/C=C/C(=O)O (stereo not drawn) [(—)-Cyanopindolol hemifumarate]
[3]
  cAMP Gs ADRB2 S/B: 1.8
[2]
  Arrestin W158A S/B: 1.0
[4]
  Trafficking 5-EA ADRB2 S/B: 17.1

## O=C(CCCN1CCC(O)(c2ccc(Cl)cc2)CC1)c1ccc(F)cc1 [Haloperidol]
[5]
  EC50: 15.3 mM
[6]
  BOTTOM: 7500
  HILLSLOPE: 0.5120
  LOGEC50: −1.815
  TOP: 537564

## COc1ccccc1N1CCN(CC(O)COc2cccc3ccccc23)CC1.Cl.Cl (stereo not drawn) [Naftopidil 2HCl]
[3]
  cAMP Gs ADRB2 S/B: 1.0
[2]
  Arrestin W158A S/B: 1.0
[4]
  Trafficking 5-EA ADRB2 S/B: 6.8

## CCC(NC(C)C)C(O)c1ccc(O)c2[nH]c(=O)ccc12 (stereo not drawn) [Procaterol HCl]
[3]
  cAMP Gs ADRB2 S/B: 15.2
[2]
  Arrestin W158A S/B: 21.3
[4]
  Trafficking 5-EA ADRB2 S/B: 78.2

## CC(C)NCC(O)COc1cccc2ccccc12 (stereo not drawn) [Propanolol HCl]
[2]
  Arrestin W158A S/B: 0.9

## COc1ccc(S(=O)(=O)N2c3ccc(Cl)cc3[C@](O)(c3ccccc3Cl)[C@@H]2C(=O)N2CCC[C@H]2C(N)=O)cc1OC [SR49059]
[7]
  dose response of AVPR2 trafficking to compound (result in words): dose response curve was obtained

Source: patent US9388449B2, “Monitoring protein trafficking using beta-galactosidase reporter fragment complementation” (DiscoveRx Corporation, priority 2011, dated 2016)
